Drawing on patent US5006555A, “Esters of 2-arylmethyl-1-naphthol derivatives as 5-lipoxygenase inhibitors” (E. I. Du Pont de Nemours and Company, priority 1990, dated 1991), this text covers IC50 and inhibition in vivo for twelve compounds.

As a reminder, the IC50 is the midpoint of a concentration-inhibition curve. A word on the inhibition in vivo: it is the percentage by which the read-out fell short of the control. Low readings indicate little suppression, high ones strong suppression.

In test [1] the target is T1, 5-lipoxygenase (Rattus norvegicus, UniProt P12527).
T1 construct: endogenous in cells; host or cells: RBL-1 (rat basophilic leukemia) cells, 10,000 xg supernatant of the homogenate
T1 sequence (P12527 1-673): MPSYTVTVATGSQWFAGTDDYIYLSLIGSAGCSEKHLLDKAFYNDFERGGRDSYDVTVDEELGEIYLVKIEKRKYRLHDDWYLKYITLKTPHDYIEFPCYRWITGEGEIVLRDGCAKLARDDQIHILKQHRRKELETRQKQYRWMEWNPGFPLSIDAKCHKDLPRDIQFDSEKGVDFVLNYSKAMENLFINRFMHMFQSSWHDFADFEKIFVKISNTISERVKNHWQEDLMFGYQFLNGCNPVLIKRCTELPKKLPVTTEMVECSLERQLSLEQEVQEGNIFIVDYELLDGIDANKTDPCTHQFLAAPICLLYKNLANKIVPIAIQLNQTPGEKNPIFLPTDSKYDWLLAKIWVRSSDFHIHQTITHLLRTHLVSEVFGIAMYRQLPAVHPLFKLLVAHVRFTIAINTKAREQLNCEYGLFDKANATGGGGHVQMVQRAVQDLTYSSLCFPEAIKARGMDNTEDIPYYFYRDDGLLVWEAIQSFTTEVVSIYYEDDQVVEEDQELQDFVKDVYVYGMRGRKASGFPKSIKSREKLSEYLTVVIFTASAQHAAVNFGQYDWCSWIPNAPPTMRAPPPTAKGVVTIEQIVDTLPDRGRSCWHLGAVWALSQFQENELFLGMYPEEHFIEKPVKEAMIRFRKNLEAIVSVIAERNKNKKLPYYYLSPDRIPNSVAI
The test is described as follows: 5-lipoxygenase inhibition in vitro, RBL-1 cell supernatant as enzyme source. The test is classed as biochemical. Particulars: 10,000 xg supernatant of homogenized rat basophilic leukemia (RBL-1) cells, pH 7.0 phosphate buffer, 14C-arachidonic acid, 37°, two minutes. As to the method:
The test method is a modification of the procedure developed by Jakschik et al. (Prostaglandins (1978) 16. 733; Biochem. Biophys. Res. Commun. (1980) 95. 103; Biochem. Biophys, Res. Commun. (1981) 102 624).
The 10,000 xg supernatant from homogenized RBL-1 cells was incubated with test compound in a pH 7.0 phosphate buffer for about five minutes. ^14 C-arachidonic acid was added to initiate the reaction, which was allowed to continue at 37° for two minutes. The reaction was stopped by freezing in a dry ice/ethanol slurry and the 5-lipoxygenase products were separated from the substrate on silica gel columns. The amount of individual lipoxygenase products produced was determined and the percent inhibition calculated.

Test [2] concerns arachidonic acid-induced ear edema. Briefly: arachidonic acid-induced ear edema in mice. Particulars: Mus musculus, 1 h; 100 μg/ear topical in acetone, CF1 mice, 1 mg arachidonic acid, one hour after challenge; >30% significant, 50% and above good to excellent. The test is classed as in vivo. As to the method: This assay indicates a specific use in the treatment of skin diseases such as psoriasis. This assay also implies a reduction in leukotrienes caused by the compounds of the invention and indicates the use of these compounds in other diseases where the production of leukotrienes is involved in the pathological process. The assay is a modification of the procedure described by Young et al. (J. Invest. Dermatol. (1983) 80. 48).
Arachidonic acid (1 mg) was applied as an acetone solution to the inner surface of the pinna of CF1 mice. Test compound dissolved in acetone was applied to the ear just prior to the arachidonic acid challenge. One hour after challenge, 6 mm disks were removed from the ear with a biopsy punch and the weight determined. The results were determined as a percent inhibition of the swelling which occurred in the absence of the test compound.
Significant inhibitory activity is considered to be greater than 30% inhibition. 50% and above is considered to be good to excellent activity.

`CC(=O)Oc1c(Cc2ccccc2)ccc2ccccc12` [Example 1, 1-acetoxy-2-phenylmethylnaphthalene] displayed an IC50 in test [1] of 140 nM. The inhibition in vivo at 100 µg/ear in test [2] is 66%. The like results for `CCOC(=O)Oc1c(Cc2ccccc2)ccc2ccccc12` [Example 2, 1-ethoxycarbonyloxy-2-phenylmethyl naphthalene] were, in that order, 1200 nM and 50%. In test [1], `O=C(O)CCC(=O)Oc1c(Cc2ccccc2)ccc2ccccc12` [Example 3, 1-(3-carboxvpropionvloxv)-2-phenylmethvlnaphthalene] displayed an IC50 of 530 nM. In test [1], `CN(C)CCCC(=O)Oc1c(Cc2ccccc2)ccc2ccccc12` [Example 4, 1-(4-demethylamine-butyryloxy)-2-phenylmethvlnaohthalene hvdrochloride] had an IC50 of 520 nM. For the same compound, the inhibition in vivo at 100 µg/ear in test [2] was determined as 44%.

For the compound `CC(=O)Oc1c(Cc2ccccc2F)ccc2ccccc12` [Example 7], in test [2], the inhibition in vivo at 100 µg/ear stood at 72%. On to `CC(=O)Oc1c(Cc2cccc(F)c2)ccc2ccccc12` [Example 8], for which the IC50 in test [1] was determined as 62 nM. `COc1ccc(Cc2ccc3ccccc3c2OC(C)=O)cc1` [Example 10] gave an IC50 in test [1] of 90 nM. In test [2], this compound had an inhibition in vivo at 100 µg/ear of 53%. With `COc1ccc(Cc2ccc3ccccc3c2OC(C)=O)cc1OC` [Example 11], the midpoint of inhibition in test [1], the IC50, lay at 580 nM. As to `CC(=O)Oc1ccc(Cc2ccc3ccccc3c2OC(C)=O)cc1OC(C)=O` [Example 12, 1-acetoxy-2-(3,4-diaacetoxyphenylmethyl)naphthalene], in test [1], the IC50 came to 1600 nM. The inhibition in vivo at 100 µg/ear in test [2] is 35%. As for `CC(=O)Oc1c(Cc2ccc3c(c2)OCO3)ccc2ccccc12` [Example 14], in test [1], half-maximal inhibition (IC50) required 190 nM. In test [1], `CC(=O)Oc1c(Cc2ccc(N(C)C)cc2)ccc2ccccc12` [Example 15, 1-acetoxy-2-(4-dimethylaminophenylmethyl)naphthalene] returned an IC50 of 810 nM. Besides, the inhibition in vivo at 100 µg/ear in test [2] came out at 49%. With `CC(=O)Oc1c(Cc2cccs2)ccc2ccccc12` [Example 17], the IC50 in test [1] worked out at 70 nM. Besides, the inhibition in vivo at 100 µg/ear in test [2] came to 52%.
